From patent US12186309B2, “RNA virus inhibitor compounds and uses thereof” (The Governors of the University of Alberta, priority 2021, dated 2025)
Like-named read-outs stand apart in the source and are kept apart here.

How the values were obtained:
[1] = system: SARS-CoV-2; assay: SARS-CoV-2 plaque reduction assay in Vero E6 cells; assay type: cell-based; conditions: read-out: SARS-CoV-2 Antiviral EC50
[2] = molecular target: SARS-CoV-2 3CLP (Severe acute respiratory syndrome coronavirus 2 (2019-nCoV) (SARS-CoV-2), UniProt P0DTD1); assay: SARS-CoV-2 3CLP inhibition FRET assay; assay type: biochemical; conditions: 80 nM SARS-CoV-2 3CLP, 100 μM FRET substrate, pH 7.8, 37° C., 10 min preincubation; read-out: 3CL Protease IC50
[3] = in vitro; assay type: cell-based
Experimental: Cell viability was measured using the CellTiter-Glo luminescent cell viability assay (Promega). Separately A549 (human lung epithelial) cells and VeroE6 cells were seeded at 5×10^3 cells/well in 96-well plates and incubated overnight before treatment. Compounds were solubilized in DMSO and added to cells in an eight-point four-fold serial dilution (200 μM to 0.0122 μM). Cells were incubated in the presence of compounds for 24 hours before addition of the luminescence substrate and measurement of ATP activity according to manufacturer's instructions. The percentage of viable cells was calculated relative to cells treated with solvent alone (0.5% DMSO).

[4] = Severe acute respiratory syndrome coronavirus 2, Vero C1008, Vero E6 cells, SARS-CoV-2/CANADA/VIDO 01/2020, MOI 0.0001 pfu/cell, plaques counted after 48 h
[5] = Severe acute respiratory syndrome coronavirus 2, Vero C1008, 48 h

Compound | EC50 [1, 4] [µM] | IC50 [2] [µM] | CC50 at 24 h ([3]; African green monkey) [µM] | CC50 at 24 h ([3]; human) [µM] | EC50 [1, 5] [µM]
CC(C)C[C@@H](C(=O)N[C@H](C#N)C[C@@H]1CCCNC1=O)N1C(=O)c2ccccc2C1=O [Compound 1, (2S)—N-{(1S)-1-cyano-2-[(3S)-2-oxopiperidin-3-yl]ethyl}-2-(1,3-dioxo-1,3-dihydro-2H-isoindol-2-yl)-4-methylpentanamide] | > 10 | 8.5 | – | – | –
CC(C)(C)[C@H](NC(=O)C(F)F)C(=O)N1C[C@H]2[C@@H]([C@H]1C(=O)N[C@H](C#N)C[C@@H]1CCCNC1=O)C2(C)C [Compound 20, (1R,2S,5S)—N-{(1S)-1-cyano-2-[(3S)-2-oxopiperidin-3-yl]ethyl}-3-[N-(difluoroacetyl)-3-methyl-L-valyl]-6,6-dimethyl-3-azabicyclo[3.1.0]hexane-2-carboxamide] | – | – | > 200 | > 200 | < 5
CC(C)C[C@@H](C(=O)N[C@H](C#N)C[C@@H]1CCCNC1=O)N1C(=O)CC(C)(C)C1=O [Compound 2, (2S)—N-{(1S)-1-cyano-2-[(3S)-2-oxopiperidin-3-yl]ethyl}-2-(3,3-dimethyl-2,5-dioxopyrrolidin-1-yl)-4-methylpentanamide] | > 10 | 10.7 | – | – | –
CC(C)C[C@@H](C(=O)N[C@H](C#N)C[C@@H]1CCCNC1=O)n1cccc(NC(=O)OC(C)(C)C)c1=O [Compound 7, tert-butyl {1-[(2S)-1-({(1S)-1-cyano-2-[(3S)-2-oxopiperidin-3-yl]ethyl}amino)-4-methyl-1-oxopentan-2-yl]-2-oxo-1,2-dihydropyridin-3-yl}carbamate] | < 10 | – | – | – | –
[2H]C1([2H])CC[C@@H](C[C@@H](C#N)NC(=O)[C@@H]2[C@@H]3[C@H](CN2C(=O)[C@@H](NC(=O)C(F)F)C(C)(C)C)C3(C)C)C(=O)N1 [Compound 24, (1R,2S,5S)—N-{(1S)-1-cyano-2-[(3S)-2-oxo(6,6-^2H2)piperidin-3-yl]ethyl}-3-[N-(difluoroacetyl)-3-methyl-L-valyl]-6,6-dimethyl-3-azabicyclo[3.1.0]hexane-2-carboxamide] | – | – | > 200 | > 200 | < 5
CC(C)C[C@@H](C(=O)N[C@H](C#N)C[C@@H]1CCCNC1=O)N1C(=O)C[C@H](c2ccccc2)C1=O [Compound 5, (2S)—N-{(1S)-1-cyano-2-[(3S)-2-oxopiperidin-3-yl]ethyl}-2-[(3R)-2,5-dioxo-3-phenylpyrrolidin-1-yl]-4-methylpentanamide] | > 10 | 6.9 | – | – | –
